Assay results as given in ChEMBL document CHEMBL1759972, “Phenoxyacetic acids as PPARδ partial agonists: synthesis, optimization, and in vivo efficacy” (Bioorg Med Chem Lett, 2011).
Values after ≈ are worked out from the molar mass of the structure shown. Active and inactive are the calls of the source. No cut-off for these calls is given here.

Legend:
[1] = Aqueous solubility of the compound; assay type: physicochemical
[2] = biological target: Cytochrome P450 2C9 (Homo sapiens, UniProt P11712); assay: Inhibition of CYP2C9; assay type: ADME
[3] = biological target: Cytochrome P450 2D6 (Homo sapiens, UniProt P10635); assay: Inhibition of CYP2D6; assay type: ADME
[4] = system: Mus musculus; assay: Antidiabetic activity in fasting insulin-resistant ob/ob mouse assessed as decrease in body weight gain at 100 mg/kg, po administered once daily for 15 days; assay type: functional, organism-based; design: dose 100 mg/kg
[5] = system: Liver microsomes; assay: Intrinsic clearance in human liver microsomes; assay type: ADME, Microsome
[6] = biological target: T1, Peroxisome proliferator-activated receptor alpha (Homo sapiens, UniProt Q07869); assay: Displacement of [3H]GW 2433 from human PPARalpha by scintillation proximity assay
T1 sequence (Q07869 whole entry): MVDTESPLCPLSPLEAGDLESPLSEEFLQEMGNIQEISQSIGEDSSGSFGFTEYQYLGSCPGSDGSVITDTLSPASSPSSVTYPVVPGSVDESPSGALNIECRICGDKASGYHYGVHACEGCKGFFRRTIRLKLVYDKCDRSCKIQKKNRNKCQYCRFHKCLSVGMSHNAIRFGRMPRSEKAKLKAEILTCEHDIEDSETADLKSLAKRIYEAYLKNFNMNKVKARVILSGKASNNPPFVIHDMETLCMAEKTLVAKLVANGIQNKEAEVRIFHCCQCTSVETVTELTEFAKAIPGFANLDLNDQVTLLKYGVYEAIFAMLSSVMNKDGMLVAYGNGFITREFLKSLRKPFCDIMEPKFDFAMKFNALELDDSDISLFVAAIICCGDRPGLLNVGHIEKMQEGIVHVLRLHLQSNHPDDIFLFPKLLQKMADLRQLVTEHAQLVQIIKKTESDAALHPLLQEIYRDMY

[7] = system: Mus musculus; assay: Antidiabetic activity in po dosed fasting insulin-resistant ob/ob mouse assessed as improvement in glucose sensitivity administered once daily for 15 days measured on day 12 of dosing by OGTT method; assay type: functional, organism-based
[8] = biological target: T2, Peroxisome proliferator-activated receptor delta (Homo sapiens, UniProt Q03181); assay: Induction of human PPARdelta-mediated PDK4 gene expression in human skeletal muscle; assay type: tissue-based, Muscle tissue
T2 sequence (Q03181 whole entry): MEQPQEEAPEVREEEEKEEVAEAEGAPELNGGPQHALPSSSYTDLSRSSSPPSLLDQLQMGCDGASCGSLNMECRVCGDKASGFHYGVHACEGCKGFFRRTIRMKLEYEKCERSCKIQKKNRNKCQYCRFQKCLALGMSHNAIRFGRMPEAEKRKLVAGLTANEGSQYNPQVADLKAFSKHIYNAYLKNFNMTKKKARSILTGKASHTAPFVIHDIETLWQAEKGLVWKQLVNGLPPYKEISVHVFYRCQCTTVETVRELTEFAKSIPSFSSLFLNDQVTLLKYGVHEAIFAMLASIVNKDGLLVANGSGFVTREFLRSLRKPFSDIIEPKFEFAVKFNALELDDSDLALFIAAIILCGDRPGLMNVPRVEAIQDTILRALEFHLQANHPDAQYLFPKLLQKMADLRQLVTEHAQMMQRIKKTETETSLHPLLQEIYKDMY

[9] = biological target: T2, Peroxisome proliferator-activated receptor delta
Description: Partial agonist activity at human PPARdelta expressed in african green monkey CV1 cells transfected with Gal4 assessed as beta-galactosidase activity by transactivation assay

[10] = Permeability across artificial membrane; assay type: ADME; conditions: PAMPA; read-out: permeability
[11] = biological target: Cytochrome P450 3A4 (Homo sapiens, UniProt P08684); assay: Inhibition of CYP3A4; assay type: ADME
[12] = AUC (0 to infinity) in CD mouse at 10 mg/kg, po; assay type: ADME, organism-based; design: time infinity, dose 10 mg/kg, route oral; conditions: plasma
[13] = biological target: T2, Peroxisome proliferator-activated receptor delta; assay: Induction of human PPARdelta-mediated CPT1a gene expression in human skeletal muscle; assay type: tissue-based, Muscle tissue
[14] = Half life in CD mouse at 10 mg/kg, po; assay type: ADME, organism-based; design: dose 10 mg/kg, route oral; conditions: in vivo
[15] = biological target: T3, Cytochrome P450 1A2 (Homo sapiens, UniProt P05177); assay: Inhibition of CYP1A2; assay type: ADME
T3 sequence (P05177 whole entry): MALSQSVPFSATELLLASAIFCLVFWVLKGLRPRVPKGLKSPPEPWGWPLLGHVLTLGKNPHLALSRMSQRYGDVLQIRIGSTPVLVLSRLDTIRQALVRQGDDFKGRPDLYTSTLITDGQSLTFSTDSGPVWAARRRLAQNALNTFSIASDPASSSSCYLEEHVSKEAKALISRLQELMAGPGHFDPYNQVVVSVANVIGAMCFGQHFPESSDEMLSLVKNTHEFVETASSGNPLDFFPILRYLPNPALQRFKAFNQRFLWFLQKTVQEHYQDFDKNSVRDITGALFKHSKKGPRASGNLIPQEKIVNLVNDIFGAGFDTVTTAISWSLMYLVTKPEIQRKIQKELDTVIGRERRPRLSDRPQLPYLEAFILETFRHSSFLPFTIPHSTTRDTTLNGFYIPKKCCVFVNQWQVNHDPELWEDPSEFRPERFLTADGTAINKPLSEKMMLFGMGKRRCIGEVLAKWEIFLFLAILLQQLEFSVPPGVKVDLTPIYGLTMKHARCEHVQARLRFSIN

[16] = biological target: T4, Peroxisome proliferator-activated receptor gamma (Homo sapiens, UniProt P37231)
T4 sequence (P37231 whole entry): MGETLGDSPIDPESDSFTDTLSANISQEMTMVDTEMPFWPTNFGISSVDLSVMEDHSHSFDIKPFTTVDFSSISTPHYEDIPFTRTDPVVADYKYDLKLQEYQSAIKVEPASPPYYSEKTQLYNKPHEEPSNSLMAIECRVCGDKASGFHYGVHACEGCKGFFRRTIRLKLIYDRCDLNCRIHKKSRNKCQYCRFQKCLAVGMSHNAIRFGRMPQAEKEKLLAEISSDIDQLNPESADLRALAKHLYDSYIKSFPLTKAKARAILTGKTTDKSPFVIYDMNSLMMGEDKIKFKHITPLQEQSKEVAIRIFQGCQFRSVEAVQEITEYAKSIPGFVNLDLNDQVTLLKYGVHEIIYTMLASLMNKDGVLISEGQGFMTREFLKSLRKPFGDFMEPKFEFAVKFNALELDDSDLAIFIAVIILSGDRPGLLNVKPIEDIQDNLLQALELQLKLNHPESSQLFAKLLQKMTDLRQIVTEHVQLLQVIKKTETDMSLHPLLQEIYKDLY
Description: Displacement of [3H]GW 2433 from human PPARgamma by scintillation proximity assay

[17] = biological target: Cytochrome P450 2C19 (Homo sapiens, UniProt P33261); assay: Inhibition of CYP2C19; assay type: ADME
[18] = system: Mus musculus; assay: Antidiabetic activity in fasting insulin-resistant ob/ob mouse assessed as improvement in glucose sensitivity at 30 mg/kg, po administered once daily for 15 days measured on day 12 of dosing by OGTT method; assay type: functional, organism-based; design: dose 30 mg/kg
[19] = biological target: T2, Peroxisome proliferator-activated receptor delta; remark: listed apart in the source
Description: Displacement of [3H]GW 2433 from human PPARdelta by scintillation proximity assay

[20] = system: Mus musculus; assay: Dose normalized AUC (0 to 24 hrs) in CD mouse at 10 mg/kg, po; assay type: ADME, organism-based; design: time < 24 hr, dose 10 mg/kg, route oral; conditions: in vivo

Chain of Cytochrome P450 3A4 (P08684 whole entry): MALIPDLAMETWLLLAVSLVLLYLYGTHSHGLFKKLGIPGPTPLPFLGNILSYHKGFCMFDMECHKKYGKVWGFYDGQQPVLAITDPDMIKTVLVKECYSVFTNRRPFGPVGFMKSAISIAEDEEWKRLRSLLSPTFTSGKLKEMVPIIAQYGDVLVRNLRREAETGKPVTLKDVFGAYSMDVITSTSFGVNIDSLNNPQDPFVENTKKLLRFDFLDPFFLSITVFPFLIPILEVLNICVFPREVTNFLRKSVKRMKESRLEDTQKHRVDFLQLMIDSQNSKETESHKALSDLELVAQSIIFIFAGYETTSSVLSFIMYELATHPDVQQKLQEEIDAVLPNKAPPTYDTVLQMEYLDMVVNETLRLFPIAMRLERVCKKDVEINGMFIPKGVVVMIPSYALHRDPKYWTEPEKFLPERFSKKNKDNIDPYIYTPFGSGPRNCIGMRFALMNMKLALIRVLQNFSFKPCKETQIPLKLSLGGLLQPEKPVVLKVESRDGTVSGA
Chain of Cytochrome P450 2C19 (P33261 whole entry): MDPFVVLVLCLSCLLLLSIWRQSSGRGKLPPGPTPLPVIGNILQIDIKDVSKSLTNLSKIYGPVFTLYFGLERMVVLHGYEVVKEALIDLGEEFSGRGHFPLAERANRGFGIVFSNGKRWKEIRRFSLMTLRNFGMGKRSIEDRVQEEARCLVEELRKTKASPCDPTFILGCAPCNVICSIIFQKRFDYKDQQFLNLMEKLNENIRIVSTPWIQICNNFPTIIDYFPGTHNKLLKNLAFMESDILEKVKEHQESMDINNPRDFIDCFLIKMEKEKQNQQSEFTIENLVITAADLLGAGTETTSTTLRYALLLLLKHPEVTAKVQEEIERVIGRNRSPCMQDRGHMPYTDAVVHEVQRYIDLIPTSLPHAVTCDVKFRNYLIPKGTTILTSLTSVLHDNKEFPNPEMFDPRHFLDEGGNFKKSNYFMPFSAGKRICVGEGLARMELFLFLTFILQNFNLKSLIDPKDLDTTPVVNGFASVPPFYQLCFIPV
Chain of Cytochrome P450 2C9 (P11712 whole entry): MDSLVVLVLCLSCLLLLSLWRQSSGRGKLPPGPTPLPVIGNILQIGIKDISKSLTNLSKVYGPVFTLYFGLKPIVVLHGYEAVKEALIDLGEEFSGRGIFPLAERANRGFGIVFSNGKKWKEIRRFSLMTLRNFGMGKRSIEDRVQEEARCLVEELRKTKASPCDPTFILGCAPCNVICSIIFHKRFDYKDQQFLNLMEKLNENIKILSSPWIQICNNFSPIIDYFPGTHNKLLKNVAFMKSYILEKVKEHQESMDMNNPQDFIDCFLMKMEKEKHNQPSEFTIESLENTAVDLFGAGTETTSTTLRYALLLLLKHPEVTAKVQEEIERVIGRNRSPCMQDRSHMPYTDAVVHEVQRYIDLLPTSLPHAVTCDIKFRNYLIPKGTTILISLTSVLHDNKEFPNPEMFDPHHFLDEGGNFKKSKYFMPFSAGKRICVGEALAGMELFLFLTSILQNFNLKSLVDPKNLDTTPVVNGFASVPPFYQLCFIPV
Chain of Cytochrome P450 2D6 (P10635 whole entry): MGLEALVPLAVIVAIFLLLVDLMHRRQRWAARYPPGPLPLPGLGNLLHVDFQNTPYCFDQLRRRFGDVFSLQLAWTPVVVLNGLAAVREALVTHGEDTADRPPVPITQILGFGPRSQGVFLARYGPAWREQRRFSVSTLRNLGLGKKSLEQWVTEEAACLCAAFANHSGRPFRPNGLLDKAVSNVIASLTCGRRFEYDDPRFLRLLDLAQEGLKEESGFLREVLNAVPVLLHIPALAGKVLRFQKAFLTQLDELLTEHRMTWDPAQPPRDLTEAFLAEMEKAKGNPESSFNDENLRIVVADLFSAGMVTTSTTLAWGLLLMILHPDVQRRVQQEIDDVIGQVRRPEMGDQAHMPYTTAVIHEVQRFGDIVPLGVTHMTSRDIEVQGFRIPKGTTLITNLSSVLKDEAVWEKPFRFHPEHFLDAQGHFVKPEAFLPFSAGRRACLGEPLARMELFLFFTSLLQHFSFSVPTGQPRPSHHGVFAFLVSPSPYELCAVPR

Row | solubility [1] [µM] | IC50 [2] [nM] | IC50 [3] [nM] | CL [5] [µL/min/mg] | IC50 [6] [nM] | EC50 [8] [nM] | EC50 [9] [nM] | Papp [10] [×10⁻⁶ cm/s] | IC50 [11] [nM] | AUC(0-inf) [12] [ng·h/mL] | EC50 [13] [nM] | half-life [14] [h] | IC50 [15] [nM] | IC50 [16] [nM] | IC50 [17] [nM] | IC50 [19] [nM] | AUC [20] [ng·h/mL/mg/kg] | SMILES | Activity [4] | Activity [7] | Activity [18]
1 | 140 (≈ 81.8 µg/mL) | 794 | > 3160 | 18 | 7940 | 10 | 2.51 | 25 | > 3160 | 2480 | 3.98 | 4.3 | > 3160 | 6310 | > 3160 | 6.31 | – | CCCCN(c1cccc(-c2ccc(C(F)(F)F)cc2)c1Cl)S(=O)(=O)c1ccc(OC(C)C(=O)O)c(C)c1C (configuration not stated) | Active | Dose-dependent effect | Active
2 | – | – | – | – | 20000 | – | 25.1 | – | – | – | – | – | – | – | – | 50.1 | 575 | CCCCN(c1cccc(-c2ccc(Cl)cc2)c1C)S(=O)(=O)c1ccc(OC(C)C(=O)O)c(C)c1C (configuration not stated) | – | – | –
3 | 140 (≈ 84 µg/mL) | 794 | > 3160 | 28 | 10000 | 25.1 | 2.51 | 25 | > 3160 | 5870 | 10 | 5.4 | > 3160 | 6310 | > 3160 | 15.8 | – | CCCCN(c1cccc(-c2ccc(OC(F)(F)F)cc2)c1Cl)S(=O)(=O)c1ccc(OC(C)C(=O)O)c(C)c1C (configuration not stated) | Active | Dose-dependent effect | Active
